US6162925A, “Antibiotic for methicillin resistant bacteria” (Research Corporation Tech., Inc., priority 1999, dated 2000)
Values after ≈ are worked out from the molar mass of the structure shown.

How the values were obtained:
[1] = Stability of cyclization product 29; format: physicochemical
Method: To a mixture of 28 (70 mg, 0.067 mmol, 1.0 eq) and anisole (0.1 mL) was added TFA (1.0 mL). the resulting mixture was stirred for 15 min at room temperature. The TFA was evaporated and coevaporated with CH2 Cl2 to dryness. The resulting residue was dried on vacuo for 2 h and triturated with ethyl ether to give a white solid. This white solid was dissolved in THF (1.5 mL). To this solution was added triethylamine (20 μL, 0.14 mmol, 2.0 eq). After stirring 10 min., the solvent was evaporated and the resulting residue was immediately purified by PTLC (silica gel, CH2 Cl2 : EtOAc: MeOH, 4:1:0.5) to give 40 mg (67%) of 29 as a white solid. This product was unstable with a tendency to form a bicycle by-product (t1/2 is about 1 day) and was used for the next step immediately. ^1 H NMR (300 MHz, CD3 Cl/D2 O vs TMS): δ1.62 (4H, m); 2.45 (2H, m); 2.76/2.78 (3H, s); 3.32 (1H, m); 3.70 (1H, m); 3.93 (4H, m); 5.17 (6H, m); 7.32 (20H, m) ppm. IR (NaCl, film): 3381, 3258, 2934, 1765, 1713, 1646, 1608, 1504, 1452, 1252, 1186, 1096, 1063 cm^-1. MS (ES+): Calcd. for (C45 H49 N9 O11 +H)=892.4. Found (M+H)=892.4; (M+H-108)=784.3.

[2] = cited from earlier work
[3] = test system: Gram-positive and Gram-negative bacteria; conditions: S- versus R-configuration in the heterocyclic portion; cited from earlier work
[4] = Stability in 0.1 M phosphate buffer pH=5; format: physicochemical; conditions: 0.1 M phosphate buffer at pH=5
Method: Compound 36 (10 mg, 0.012 mmol) was treated with anisole (0.1 mL) and TFA (1.0 mL) at 0° C. The mixture was stirred for 1 h at room temperature, concentrated and purified by PTLC (silica gel, CH2 Cl2 : MeOH, 6:1) to give 6.0 mg of a semi-solid. To a solution of this substance (6 mg, 0.0066 mmol, 1.0 eq) in MeOH (1.0 mL)/CH2 Cl2 (0.5 mL) was added PdCl2 (8.0 mg) After degassing with N2, the reaction mixture was charged with H2 (1 atm.) and the mixture was hydrogenated for 10 min. The mixture was then purged with nitrogen, and filtered to remove the catalyst. The filtrate was concentrated and dried in vacuo to give a 2HCl salt of TAN-1057 C/D (1:1, 3 mg ~100% yield) as an amorphous solid. ^1 H NMR (300 MHz, DMSO-d6 vs TMS): δ1.51 (4H, m); 2.82 (3H, s); 2.70-2.90 (2H, m); 3.09 (2H, m); 3.43 (1H, m); 3.79 (2H, m); 4.66 (1/2H, m); 4.75 (1/2H, m); 7.26 (6H, m); 7.86 (1H, br); 8.06 (1H, br); 8.70 (2H, br); 9.15 (1H, br); 10.35 (1H, br) ppm. MS (FAB): Calcd. for (C13 H25 N9 O3 +H)=356.2. Found: (M+H)=356.3; (M+2H)^++ =178.7.

[5] = Antibiotic activity by bioassay against authentic TAN-1057 A/B; format: cell-based; conditions: compared with authentic TAN-1057 A/B (Takeda)
Method: To a solution of 29 (40 mg, 0.045 mmol, 1.0 eq) in MeOH (1.5 mL)/CH2 Cl2 (0.5 mL) was added PdCl2 (40 mg). The reaction flask was degassed and charged with H2 (1 atm). The mixture was stirred for 30 min. The mixture was then purged with nitrogen, and filtered to remove the catalyst. The filtrate was concentrated and dried in vacuo to give a 2HCl salt of TAN-1057 A/B (1/2) (1:1, 20 mg, 100% yield) as an amorphous solid. This product was identical in mobility by HPLC, mnr and antibiotic activity by bioassay to authentic TAN-1057 A/B (Takeda). ^1 HNMR (300 MHz, D2 O): δ1.77 (4H, m); 2.85 (1H, dd, J=18, 9.3 Hz); 3.00 (1H, dd, J=18, 4.0 Hz); 3.17 (3H, s); 3.27 (2H, t, J=6.0 Hz); 3.70 (1H, m); 3.99 (2H, m); 5.14 (1H, dd, J=12, 8.5 Hz) ppm; IR (KBr pellet): 3350, 3179, 2955, 1696, 1622, 1395, 1205, 1135 cm^1. MS (ES^+): Calcd. (C13 H25 N9 O3 +H)=356.2, Found (M+H)=356.4.

[6] = test system: Staphylococcus aureus COL; test: MIC, broth microdilution (NCCLS), S. aureus COL; format: cell-based; conditions: S. aureus COL, methicillin resistant, β-lactamase negative, 35° C., 20 h, read-out: Minimal Inhibitory Concentration (MIC)
Method: (§1) Test compounds were assayed against Staphylococcus aureus FDA 209P by the 10 fold agar disc diffusion assay on BHI-plates at pH=7 and pH=9 in accordance with the procedure from the National Committee for Clinical Laboratory Standards 1989. Susceptibility testing. A panel of 16 bacteria was used to evaluate the antimicrobial activity of the compounds (Table 2). The MIC of each antimicrobial agent was determined using a microdilution method according to NCCLS standards^1. Serial twofold dilutions of antibiotics were prepared in Mueller-Hinton broth (Difco Laboratories, Detroit, Mich.). Bacteria were grown to early log phase at 35° C. (1 hours) in Mueller-Hinton broth and cultures were diluted to achieve a final inoculum of 5×10^5 CFU per ml. Microtiter plates were incubated at 35° C. for 20 h and then were read using a Thermomax microplate reader (Molecular Devices, Sunnyvale, Calif.) and a microtiter plate reading mirror. The MIC was defined as the lowest concentration of antibiotic which inhibited the development of visible growth at the end of the incubation period. The standard reference strains were Staphyloccocus aureus ATCC […], Enterococcus faecalis ATCC 29212, E. faecium ATCC 35667, Escherichia coli ATCC 25922, and Pseudomonas aeruginosa ATCC 27853. Imipenem and vancomycin were used as antibiotic controls and values for reference strains were in accordance with the NCCLS.
(§2) Staphylococcus Methicillin
aureus COL resistant, β-

[7] = test system: Enterococcus faecium BM4147; test: MIC, broth microdilution (NCCLS), E. faecium BM4147; format: cell-based; conditions: E. faecium BM4147, vancomycin resistant, vanA, 35° C., 20 h, read-out: Minimal Inhibitory Concentration (MIC)
Method: as §1
Enterococcus Vancomycin
faecium BM4147 resistant, vanA

[8] = test system: Staphylococcus aureus ATCC 29213; test: MIC, broth microdilution (NCCLS), S. aureus ATCC 29213; format: cell-based; conditions: ATCC29213, S. aureus ATCC 29213, reference strain, 35° C., 20 h, read-out: Minimal Inhibitory Concentration (MIC)
Method: as §1
Staphylococcus ATCC Reference strain

[9] = test system: Staphylococcus haemolyticus UA281; test: MIC, broth microdilution (NCCLS), S. haemolyticus UA281; format: cell-based; conditions: S. haemolyticus UA281, methicillin resistant, 35° C., 20 h, read-out: Minimal Inhibitory Concentration (MIC)
Method: as §1, §2
haemolyticus UA281 resistant

[10] = cited from earlier work; remark: listed apart in the source
[11] = test system: MRSA; conditions: cited from earlier work
[12] = test system: Staphylococcus aureus sa ATCC 13709; test: MIC, broth microdilution (NCCLS), S. aureus sa ATCC 13709; format: cell-based; conditions: ATCC13709, S. aureus sa ATCC 13709, Smith strain, 35° C., 20 h, read-out: Minimal Inhibitory Concentration (MIC)
Method: as §1

[13] = cited from earlier work; remark: listed apart in the source
[14] = test system: Staphylococcus aureus sa201; test: MIC, broth microdilution (NCCLS), S. aureus sa201; format: cell-based; conditions: S. aureus sa201, clinical isolate Spain, methicillin resistant, β-lactamase positive, 35° C., 20 h, read-out: Minimal Inhibitory Concentration (MIC)
Method: as §1
Staphylococcus Clinical isolate,
aureus sa201 Spain resistant, β-

[15] = test system: Escherichia coli ATCC 25922; test: MIC, broth microdilution (NCCLS), E. coli ATCC 25922; format: cell-based; conditions: ATCC25922, E. coli ATCC 25922, reference strain, 35° C., 20 h, read-out: Minimal Inhibitory Concentration (MIC)
Method: as §1

[16] = test system: Staphylococcus aureus ATCC 33593; test: MIC, broth microdilution (NCCLS), S. aureus ATCC 33593; format: cell-based; conditions: ATCC33593, S. aureus ATCC 33593, methicillin resistant, β-lactamase positive, 35° C., 20 h, read-out: Minimal Inhibitory Concentration (MIC)
Method: as §1
Staphylococcus ATCC Methicillin
aureus ATCC 33593 resistant, β-

[17] = test system: Enterococcus faecalis ATCC 29212; test: MIC, broth microdilution (NCCLS), E. faecalis ATCC 29212; format: cell-based; conditions: ATCC29212, E. faecalis ATCC 29212, reference strain, 35° C., 20 h, read-out: Minimal Inhibitory Concentration (MIC)
Method: as §1
(§3) Enterococcus ATCC Reference strain

[18] = test system: Staphylococcus aureus PC1; test: MIC, broth microdilution (NCCLS), S. aureus PC1; format: cell-based; conditions: S. aureus PC1, Type A βlactamase hyperproducer, 35° C., 20 h, read-out: Minimal Inhibitory Concentration (MIC)
Method: as §1
Staphylococcus Type A βlactamase
aureus PC1 hyperproducer

[19] = test system: Staphylococcus aureus 76; test: MIC, broth microdilution (NCCLS), S. aureus 76; format: cell-based; conditions: Staphylococcus aureus; S. aureus 76, methicillin resistant, β-lactamase positive; 35° C., 20 h; read-out: Minimal Inhibitory Concentration (MIC)
Method: as §1, §2

[20] = test system: Staphylococcus aureus COL8A; test: MIC, broth microdilution (NCCLS), S. aureus COL8A; format: cell-based; conditions: 20 h, read-out: Minimal Inhibitory Concentration (MIC)
Method: as §1, §2
aureus COL8A susceptible, […]

[21] = test system: Enterococcus faecium ATCC 35667; test: MIC, broth microdilution (NCCLS), E. faecium ATCC 35667; format: cell-based; conditions: ATCC35667, E. faecium ATCC 35667, reference strain, 35° C., 20 h, read-out: Minimal Inhibitory Concentration (MIC)
Method: as §1, §3

[22] = test system: Enterococcus faecium efm040; test: MIC, broth microdilution (NCCLS), E. faecium efm040; format: cell-based; conditions: E. faecium efm040, clinical isolate U.S.A., ampicillin resistant, 35° C., 20 h, read-out: Minimal Inhibitory Concentration (MIC)
Method: as §1
Enterococcus Clinical isolate,
faecium efm040 U.S.A. resistant

[23] = test system: Pseudomonas Aeruginosa ATCC 27853; test: MIC, broth microdilution (NCCLS), P. aeruginosa ATCC 27853; format: cell-based; conditions: ATCC27853, P. aeruginosa ATCC 27853, reference strain, 35° C., 20 h, read-out: Minimal Inhibitory Concentration (MIC)
Method: as §1

## CN(C(=O)C[C@H](CCCN(C(=N)NC(=O)OCc1ccccc1)C(=O)OCc1ccccc1)NC(=O)OCc1ccccc1)C1CNC(NC(=O)NC(=O)OCc2ccccc2)=NC1=O (stereo partly shown) [Compound 29]
[1]
  t1/2 (tendency to form a bicycle by-product): about 1 day

## CN1C(=O)C[C@H](CCCNC(=N)N)NC(=O)[C@@H]1CNC(=N)NC(N)=O [TAN-1057D]
[2]
  conversion upon standing in water: rapidly convert to a mixture of TAN-1057A/B upon standing in water
[3]
  relative antibacterial activity of stereoisomers: more active than TAN-1057 B and C

## CN1C(=O)C[C@H](CCCNC(=N)N)NC(=O)C1CNC(=N)NC(N)=O (stereo partly drawn) [TAN-1057 C/D, [[[[5-[3-[(aminoiminomethyl)amino]propyl]hexahydro-(2S/R,5S)-1-methyl-3,7-dioxo-1H-1,4-diazepin-2-yl]methyl]amino]iminomethyl]urea]
[4]
  reversion upon standing in phosphate buffer: reverted to a mixture of 1 and 2

## CN(C(=O)C[C@@H](N)CCCNC(=N)N)C1CNC(NC(N)=O)=NC1=O (stereo partly shown) [TAN-1057 A/B, 3S,5'S/R-3-amino-6-[(aminoiminomethyl)amino]-N-[2-[(aminocarbonyl)amino]-1,4,5,6-tetrahydro-4-oxo-5-pyrimidinyl)-N-methyl-hexanamide]
[5]
  antibiotic activity by bioassay: identical

## CN(C(=O)C[C@@H](N)CCCNC(=N)N)[C@H]1CNC(NC(N)=O)=NC1=O [TAN-1057A]
[6]
  MIC: 16 µg/mL (≈ 45 µM)
[7]
  MIC: 32 µg/mL (≈ 90 µM)
[8]
  MIC: 16 µg/mL (≈ 45 µM)
[9]
  MIC: 32 µg/mL (≈ 90 µM)
[10]; acidic and basic media, racemization of α-amino acid stereogenic center
  hydrolysis: occurs in both acidic and basic media
[10]; basic aqueous solutions, hydrolytic opening of six-membered ring
  loss of antibacterial activity in basic aqueous solutions: gradually lost their antibacterial activities in basic aqueous solutions
[11]
  activity against MRSA: potent activity against all of the MRSA strains evaluated
[12]
  MIC: 16 µg/mL (≈ 45 µM)
[13]
  comparison to vancomycin in mice: compare very favorably to vancomycin in mice
[14]
  MIC: 16 µg/mL (≈ 45 µM)
[15]
  MIC: 256 µg/mL (≈ 720 µM)
[16]
  MIC: 16 µg/mL (≈ 45 µM)
[17]
  MIC: 32 µg/mL (≈ 90 µM)
[18]
  MIC: 8 µg/mL (≈ 22.5 µM)
[19]
  MIC: 16 µg/mL (≈ 45 µM)
[20]
  MIC: 16 µg/mL (≈ 45 µM)
[21]
  MIC: 32 µg/mL (≈ 90 µM)
[22]
  MIC: 128 µg/mL (≈ 360 µM)
[23]
  MIC: 256 µg/mL (≈ 720 µM)
[3]
  relative antibacterial activity of stereoisomers: more active than TAN-1057 B and C
